Experiment [1] concerns the target T1, ICE (Homo sapiens, UniProt P29466).
T1 sequence (P29466 120-297 limits assumed): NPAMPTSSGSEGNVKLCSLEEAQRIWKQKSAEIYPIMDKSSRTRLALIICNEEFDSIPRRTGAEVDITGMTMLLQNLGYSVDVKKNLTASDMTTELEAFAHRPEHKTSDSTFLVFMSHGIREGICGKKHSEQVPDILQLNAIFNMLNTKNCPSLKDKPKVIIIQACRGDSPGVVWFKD
T1 sequence (P29466 317-404 limits assumed): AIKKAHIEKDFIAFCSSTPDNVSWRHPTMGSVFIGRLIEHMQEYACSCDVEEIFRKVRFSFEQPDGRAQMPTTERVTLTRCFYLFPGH
The experiment is described as follows: ICE inhibition, Ki determination (fluorogenic substrate Ac-Tyr-Val-Ala-Asp-AMC). Type of experiment: biochemical. The note with it: 15 µM Ac-Tyr-Val-Ala-Asp-AMC, 0.5 nM enzyme, 30°C, reversible competitive model. The protocol:
Serial dilutions of each compound of the invention are prepared using an initial 8-fold dilution of a DMSO stock into HGE (100 mM HEPES, 20% glycerol v/v, 0.5 mM EDTA), followed by seven serial 2-fold dilutions into HGE + 12.5% DMSO. Ten microliters of diluted stocks or of vehicle (HGE + 12.5% DMSO) are placed in triplicate onto a 96-well microtiter plate. Enzyme is diluted into assay buffer (HGE, 5 mM DTT, 15 µM Ac-Tyr-Val-Ala-Asp-AMC; 0.5 nM final enzyme concentration, pre-warmed to 30°C), and this reaction mixture is added to the plate at 90 µL/well. Substrate hydrolysis is monitored for 300 seconds at 30°C using 385 and 460 nm excitation and emission filters, respectively. Triplicate curves are averaged, and slopes are evaluated by linear regression. To evaluate Ki, plots of percent inhibition vs inhibitor concentration are fit by non-linear regression to a reversible, competitive model: [formula] where the competition factor is (1 + [S]/KM) = 2.

Experiment [2] deals with T1, ICE. The experiment is described as follows: ICE Colorimetric Dose-Response (IC50) Assay. The note with it: 60 minutes preincubation, 50 µM Ac-Tyr-Val-Ala-Asp-pNA, 25°C. Type of experiment: biochemical. The protocol: (§1) Diluted inhibitor stocks are prepared by two-fold serial dilution from a primary stock whose concentration is selected (based on screening results or on prior attempts at IC50 evaluation) to achieve approximately 95% inhibition in the most concentrated well. Aliquots of each dilution are transferred to a microtitre plate in triplicate.
(§2) ICE enzyme is diluted to approximately 24 nM in HGE buffer (100 mM Hepes pH 7.5, 0.5 mM EDTA, 20% glycerol, 0.1% Bovine Serum Albumin (BSA), and activated by adding dithiothreitol (DTT) to a final concentration of 5 mM. The activated enzyme is then aliquoted into wells containing inhibitor or vehicle, and the plate is preincubated for 60 minutes at ambient temperature. Substrate (Ac-Tyr-Val-Ala-Asp-pNA) is added to each well to a final concentration of 50 µM, and plates are placed in the microtitre plate-reader thermostated to 25°C. Beginning 5 minutes after addition of substrate, absorbance (405 nm) of wells is monitored for 1 hour, and activity is calculated as the mean rate of change in absorbance during this interval.

The subject of experiment [3] is IL-1β production in human peripheral blood mononuclear cells (PBMCs). In words: PBMC Cellular Assay - IC50 Determinations (LPS-stimulated IL-1β production, ELISA). Type of experiment: cell-based. The note with it: human PBMCs stimulated overnight with 10 ng/mL LPS, mature IL-1β by ELISA. The source says:
Further evidence that compounds of Formula I are inhibitors of ICE is provided by their ability to inhibit IL-1β production in human peripheral blood mononuclear cells (PBMCs) as described herein. PBMCs are isolated from heparinized blood by centrifugation over a ficoll cushion, then washed three times with phosphate-buffered saline. PBMCs are suspended in a medium containing RPMI 1640 with glutamine, penicillin, streptomycin, and 2% human AB serum, then plated at 10^6 cells per well in 96-well flat bottom plates. PBMCs are stimulated overnight with 10 ng/mL of lipopolysaccharide (LPS, E. coli strain 0111:B4; Calbiochem) in the presence or absence of a compound of Formula I. Medium is harvested, and the level of mature IL-1β was determined using an ELISA kit from R&D Systems. Cells were cultured for an additional 4 hours in the presence of 3-(4,5-dimethylthiazol-2-yl)-2,5-diphenyltetrazolium bromide (MTT) to determine viability.

The target of the next experiment is T2, Ich-2 enzyme (Homo sapiens, UniProt P49662).
T2 sequence (P49662 81-270 limits assumed): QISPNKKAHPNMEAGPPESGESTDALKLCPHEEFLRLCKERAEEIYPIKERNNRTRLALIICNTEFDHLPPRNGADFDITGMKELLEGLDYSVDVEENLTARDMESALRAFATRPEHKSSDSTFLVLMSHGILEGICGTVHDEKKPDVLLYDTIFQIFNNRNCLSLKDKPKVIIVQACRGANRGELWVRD
T2 sequence (P49662 290-377 limits assumed): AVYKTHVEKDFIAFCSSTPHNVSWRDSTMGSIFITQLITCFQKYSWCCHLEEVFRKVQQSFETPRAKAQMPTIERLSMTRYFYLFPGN
In words: Ich-2 Colorimetric Dose-Response (IC50) Assay. The note with it: enzyme 64 nM, 60 µM Ac-Leu-Glu-Val-Asp-pNA; read-out: ICH2 IC50 (Caspase 4). Type of experiment: biochemical. The protocol:
as §1, §2
Inhibition of Ich-2 enzyme is assayed as described above for ICE, except that enzyme is used at 64 nM, and 60 µM of the Ich-2-specific substrate Ac-Leu-Glu-Val-Asp-pNA is used instead of the ICE substrate Ac-Tyr-Val-Ala-Asp-pNA.

At ICE [1], `CC(C)C(CC(=O)NCCn1cnc2ccccc21)C(=O)NC(C=O)CC(=O)O` (centres unmarked) [Example 53, 3-{2-[(2-Benzoimidazol-1-yl-ethylcarbamoyl)-methyl]-3-methyl-butyrylamino}-4-oxo-butyric acid] returned an inhibition constant (Ki) of 20 nM. Besides, the IC50 turned out to be 73.7 nM against ICE [2], 8300 nM in experiment [3] and 32500 nM on Ich-2 enzyme.

As for `CC(C)C(CC(=O)NCCCc1ccccc1)C(=O)NC(CC(=O)O)C(=O)CNS(=O)(=O)CC12CCC(CC1=O)C2(C)C` (centres unmarked) [Example 12, 5-(7,7-Dimethyl-2-oxo-bicyclo[2.2.1]hept-1-ylmethanesulfonylamino)-3-{3-methyl-2-[(3-phenyl-propylcarbamoyl)-methyl]-butyrylamino}-4-oxo-pentanoic acid], on ICE [1], the Ki amounted to 12.8 nM. Moreover, the IC50 against ICE [2] amounted to 61 nM; in experiment [3], 1200 nM; on Ich-2 enzyme it was 1710 nM.

For the molecule `CC(C)C(CC(=O)NCCc1nnn[nH]1)C(=O)NC(CC(=O)O)C(=O)CNS(=O)(=O)CC12CCC(CC1=O)C2(C)C` (centres unmarked) [Example 34, 5-(7,7-Dimethyl-2-oxo-bicyclo[2.2.1]hept-1-ylmethanesulfonylamino)-3-(3-methyl-2-{[2-(1H-tetrazol-5-yl)-ethylcarbamoyl]-methyl}-butyrylamino)-4-oxo-pentanoic acid], the affinity at ICE [1] corresponds to a Ki of 16.6 nM. For the same molecule, the IC50 was 115 nM against ICE [2], 2600 nM in experiment [3] and 1100 nM on Ich-2 enzyme.

`CC(C)C(CC(=O)NCCc1ccccc1)C(=O)NC(CC(=O)O)C(=O)CSCCCc1ccccc1` (centres unmarked) [Example 10, 3-[3-Methyl-2-(phenethylcarbamoyl-methyl)-butyrylamino]-4-oxo-5-(3-phenyl-propylsulfanyl)-pentanoic acid] yielded a Ki at ICE [1] of 539 nM. The IC50 worked out at 3270 nM against ICE [2], 21500 nM in experiment [3] and 25700 nM at Ich-2 enzyme.

Molecule `CCOC1OC(=O)CC1NC(=O)C(CC(=O)NCCc1cn(C)c2ccccc12)C(C)C` (centres unmarked) [Example 37, N^1-(2-Ethoxy-5-oxo-tetrahydro-furan-3-yl)-2-isopropyl-N^4-[2-(1-methyl-1H-indol-3-yl)-ethyl]-succinamide] yielded a Ki at ICE [1] of 29.7 nM. Also, the IC50 worked out at 581 nM at ICE [2], 2000 nM in experiment [3] and 128000 nM on Ich-2 enzyme.

Turning to `CC(C)C(CC(=O)NCCn1nnc2ccccc21)C(=O)NC(C=O)CC(=O)O` (centres unmarked) [Example 58, 3-{2-[(2-Benzotriazol-1-yl-ethylcarbamoyl)-methyl]-3-methyl-butyrylamino}-4-oxo-butyric acid], at ICE [1], the Ki was 31.8 nM. Further, the concentration for half-maximal inhibition (IC50) on ICE [2] amounted to 336 nM; in experiment [3], 7750 nM; at Ich-2 enzyme, 10600 nM.

On ICE [1], `CC(C)C(CC(=O)NCCc1c[nH]c2cc(F)ccc12)C(=O)NC(CC(=O)O)C(=O)CNS(=O)(=O)CC12CCC(CC1=O)C2(C)C` (centres unmarked) [Example 20, 5-(7,7-Dimethyl-2-oxo-bicyclo[2.2.1]hept-1-ylmethanesulfonylamino)-3-(2-{[2-(6-fluoro-1H-indol-3-yl)-ethylcarbamoyl]-methyl}-3-methyl-butyrylamino)-4-oxo-pentanoic acid] returned a Ki of 1.5 nM. The figures for the IC50 (against ICE [2]; in experiment [3]; at Ich-2 enzyme) were 11 nM, 2450 nM and 62000 nM, respectively.

The molecule `CC(C)C(CC(=O)NCCc1cn(C)c2ccc(F)cc12)C(=O)NC(C=O)CC(=O)O` (centres unmarked) [Example 55, 3-(2-{[2-(5-Fluoro-1-methyl-1H-indol-3-yl)-ethylcarbamoyl]-methyl}-3-methyl-butyrylamino)-4-oxo-butyric acid] showed an inhibition constant (Ki) on ICE [1] of 7.9 nM. For the same molecule, the IC50 at ICE [2] came to 37 nM; in experiment [3], 5300 nM; on Ich-2 enzyme it was 11500 nM.

In the case of `CC(C)C(CC(=O)NCCCc1ccccc1)C(=O)NC(CC(=O)O)C(=O)CNS(=O)(=O)CC12CCC(CC1)C2(C)C` (centres unmarked) [Example 24, 5-(7,7-Dimethyl-bicyclo[2.2.1]hept-1-ylmethanesulfonylamino)-3-{3-methyl-2-[(3-phenyl-propylcarbamoyl)-methyl]-butyrylamino}-4-oxo-pentanoic acid], the inhibition constant (Ki) on ICE [1] was 20.7 nM. Besides, the results for the half-maximal inhibitory concentration (IC50) (against ICE [2]; in experiment [3]; on Ich-2 enzyme) were 360 nM, 1600 nM and 8660 nM, respectively.

`CC(C)C(CC(=O)NCCc1c[nH]c2ccccc12)C(=O)NC(CC(=O)O)C(=O)CNS(=O)(=O)CC12CCC(CC1=O)C2(C)C` (centres unmarked) [Example 16, 5-(7,7-Dimethyl-2-oxo-bicyclo[2.2.1]hept-1-ylmethanesulfonylamino)-3-(2-{[2-(1H-indol-3-yl)-ethylcarbamoyl]-methyl}-3-methyl-butyrylamino)-4-oxo-pentanoic acid] displayed a Ki on ICE [1] of 2.5 nM. Besides, the concentration for half-maximal inhibition (IC50) is 5.1 nM against ICE [2], 350 nM in experiment [3] and 1470 nM at Ich-2 enzyme.

`CC(C)C(CC(=O)NCCn1ncc2ccccc21)C(=O)NC(C=O)CC(=O)O` (centres unmarked) [Example 59, 3-{2-[(2-Indazol-1-yl-ethylcarbamoyl)-methyl]-3-methyl-butyrylamino}-4-oxo-butyric acid] showed a Ki on ICE [1] of 33.2 nM. The IC50 at ICE [2] was 56.6 nM; in experiment [3] it was 3750 nM; on Ich-2 enzyme, 10400 nM.

`CC(C)[C@H](CC(=O)NCCCc1ccccc1)C(=O)N[C@H](C=O)CC(=O)O` [Example 7, (S,S)-3-{3-Methyl-2-[(3-phenyl-propylcarbamoyl)-methyl]-butyrylamino}-4-oxo-butyric acid] yielded a Ki on ICE [1] of 115 nM. The IC50 at ICE [2] stood at 444 nM; in experiment [3] it was 6000 nM; at Ich-2 enzyme it was 20700 nM.

Molecule `CC(C)C(CC(=O)NCCCc1cccnc1)C(=O)NC(CC(=O)O)C(=O)CNS(=O)(=O)CC12CCC(CC1=O)C2(C)C` (centres unmarked) [Example 29, 5-(7,7-Dimethyl-2-oxo-bicyclo[2.2.1]hept-1-ylmethanesulfonylamino)-3-{3-methyl-2-[(3-pyridin-3-yl-propylcarbamoyl)-methyl]-butyrylamino}-4-oxo-pentanoic acid] displayed a Ki at ICE [1] of 24.5 nM. Also, the half-maximal inhibitory concentration (IC50) at ICE [2] was 113 nM; in experiment [3], 1900 nM; on Ich-2 enzyme, 4790 nM.

`CC(C)C(CC(=O)NCCCc1ccncc1)C(=O)NC(CC(=O)O)C(=O)CNS(=O)(=O)CC12CCC(CC1=O)C2(C)C` (centres unmarked) [Example 26, 5-(7,7-Dimethyl-2-oxo-bicyclo[2.2.1]hept-1-ylmethanesulfonylamino)-3-{3-methyl-2-[(3-pyridin-4-yl-propylcarbamoyl)-methyl]-butyrylamino}-4-oxo-pentanoic acid] had an inhibition constant Ki on ICE [1] of 26.6 nM. Further, the half-maximal inhibitory concentration (IC50) on ICE [2] stood at 136 nM; in experiment [3], 2000 nM; on Ich-2 enzyme, 9910 nM.

What is called Ki is a dissociation constant, usually derived from enzyme kinetics or from competition with a known ligand. By IC50 is commonly meant the concentration that gives 50% inhibition.

These data come from EP1082127B1 (WARNER-LAMBERT COMPANY LLC, priority 1998, dated 1999).
